Measurements published in BigSolDB 2.1.

COc1cc(CC#N)cc(OC)c1OC
solubility (mole fraction)
Settings	283.15 K	288.15 K	293.15 K	298.15 K	303.15 K	308.15 K	313.15 K	318.15 K	323.15 K
in DMF	0.102	0.127	0.158	0.195	0.239	0.289	0.35	0.418	0.497
in cyclohexane	0.000133	0.000248	0.000452	0.000814	0.00154	0.00253	0.00421	0.00671	0.011
in ethanol	0.00753	0.00999	0.0141	0.0209	0.0327	0.0539	0.0927	0.167	0.312
in ethyl acetate	0.0517	0.076	0.107	0.146	0.195	0.25	0.315	0.386	0.461
in isopropanol	0.00545	0.00703	0.00942	0.0134	0.0199	0.0305	0.0497	0.0838	0.146
in isopropyl acetate	0.0389	0.0537	0.0736	0.101	0.135	0.182	0.243	0.321	0.423
in methanol	0.00958	0.0128	0.0179	0.0261	0.0402	0.0638	0.106	0.183	0.327
in n-butanol	0.00774	0.00978	0.0129	0.018	0.0265	0.0409	0.0657	0.111	0.193
in n-heptane	5.37e-05	0.000146	0.000336	0.000693	0.00141	0.00222	0.00361	0.00573	0.00905
in n-hexane	0.000515	0.000732	0.00107	0.0016	0.00233	0.0035	0.00533	0.00803	0.0121
in n-propanol	0.00747	0.00951	0.0127	0.0179	0.0264	0.041	0.0658	0.111	0.191
in sec-butanol	0.00911	0.0137	0.0206	0.0314	0.0481	0.0755	0.118	0.189	0.301
